Data published in article PMC3694096, “Development of Novel In Vivo Chemical Probes to Address CNS Protein Kinase Involvement in Synaptic Dysfunction” (PLoS ONE, 2013).

Experiments:
[1] = biological target: T1, EGFR(L858R) (Homo sapiens, UniProt P00533, L858R); test: Kinome profiler screen; type: biochemical; conditions: at 20,000 nM inhibitor; kinase activity remaining
T1 construct: purchased Millipore KinaseProfiler

[2] = biological target: T2, Arg (Homo sapiens, UniProt P42684); test: Kinome profiler screen; type: biochemical; conditions: at 20,000 nM inhibitor; kinase activity remaining
T2 construct: purchased Millipore KinaseProfiler
T2 sequence (P42684 whole entry): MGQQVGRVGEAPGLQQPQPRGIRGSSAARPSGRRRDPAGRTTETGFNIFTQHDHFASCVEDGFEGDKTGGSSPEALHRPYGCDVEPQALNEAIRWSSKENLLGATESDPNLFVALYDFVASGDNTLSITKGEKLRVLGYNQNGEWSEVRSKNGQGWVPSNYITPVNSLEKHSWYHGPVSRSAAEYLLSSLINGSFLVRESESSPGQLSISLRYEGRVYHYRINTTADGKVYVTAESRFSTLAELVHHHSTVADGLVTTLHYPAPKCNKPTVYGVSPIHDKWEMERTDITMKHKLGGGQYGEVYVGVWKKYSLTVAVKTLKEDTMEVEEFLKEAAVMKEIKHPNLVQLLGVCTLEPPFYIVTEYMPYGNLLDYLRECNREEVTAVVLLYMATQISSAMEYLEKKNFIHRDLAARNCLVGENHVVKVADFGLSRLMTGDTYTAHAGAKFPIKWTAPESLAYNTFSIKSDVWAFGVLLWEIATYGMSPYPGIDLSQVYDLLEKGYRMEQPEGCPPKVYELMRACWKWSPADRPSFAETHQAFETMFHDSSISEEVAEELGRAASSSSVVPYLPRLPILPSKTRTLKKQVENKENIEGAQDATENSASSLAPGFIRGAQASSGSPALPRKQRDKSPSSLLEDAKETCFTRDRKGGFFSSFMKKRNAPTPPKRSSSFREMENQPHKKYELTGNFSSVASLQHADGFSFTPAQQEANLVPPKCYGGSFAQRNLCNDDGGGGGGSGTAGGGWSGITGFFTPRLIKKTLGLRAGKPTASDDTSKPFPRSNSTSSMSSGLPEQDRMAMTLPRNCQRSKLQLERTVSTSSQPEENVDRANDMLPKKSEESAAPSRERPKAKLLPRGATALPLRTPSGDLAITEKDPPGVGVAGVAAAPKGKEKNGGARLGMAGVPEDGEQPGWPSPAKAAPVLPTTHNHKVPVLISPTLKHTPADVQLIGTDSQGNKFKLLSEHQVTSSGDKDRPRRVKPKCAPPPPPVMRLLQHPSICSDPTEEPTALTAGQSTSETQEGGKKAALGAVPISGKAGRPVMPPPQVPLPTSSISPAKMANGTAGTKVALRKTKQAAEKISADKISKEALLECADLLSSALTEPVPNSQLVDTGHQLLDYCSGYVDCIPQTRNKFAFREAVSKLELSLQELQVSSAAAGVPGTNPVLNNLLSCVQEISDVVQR

[3] = biological target: T3, ACK1 (Homo sapiens, UniProt Q07912); test: Kinome profiler screen; type: biochemical; conditions: at 20,000 nM inhibitor; kinase activity remaining
T3 construct: purchased Millipore KinaseProfiler

[4] = biological target: T4, TSSK2 (Homo sapiens, UniProt Q96PF2); test: Kinome profiler screen; type: biochemical; conditions: at 20,000 nM inhibitor; kinase activity remaining
T4 construct: purchased Millipore KinaseProfiler

[5] = biological target: T5, PKBγ (Homo sapiens, UniProt Q9Y243); test: Kinome profiler screen; type: biochemical; conditions: at 20,000 nM inhibitor; kinase activity remaining
T5 construct: purchased Millipore KinaseProfiler

[6] = biological target: T6, Pim-2 (Homo sapiens, UniProt Q9P1W9); test: Kinome profiler screen; type: biochemical; conditions: at 20,000 nM inhibitor; kinase activity remaining
T6 construct: purchased Millipore KinaseProfiler

[7] = biological target: T7, WNK2 (Homo sapiens, UniProt Q9Y3S1); test: Kinome profiler screen; type: biochemical; conditions: at 20,000 nM inhibitor; kinase activity remaining
T7 construct: purchased Millipore KinaseProfiler

[8] = biological target: T8, PRK2 (Homo sapiens, UniProt Q16513); test: Kinome profiler screen; type: biochemical; conditions: at 20,000 nM inhibitor; kinase activity remaining
T8 construct: purchased Millipore KinaseProfiler

[9] = biological target: T9, CDK9/cyclin T1 (Homo sapiens, UniProt P50750); test: Kinome profiler screen; type: biochemical; conditions: at 20,000 nM inhibitor; kinase activity remaining
T9 construct: purchased Millipore KinaseProfiler

[10] = biological target: T10, Txk (Homo sapiens, UniProt P42681); test: Kinome profiler screen; type: biochemical; conditions: at 20,000 nM inhibitor; kinase activity remaining
T10 construct: purchased Millipore KinaseProfiler

[11] = biological target: T11, MEK1 (Homo sapiens, UniProt Q02750); test: Kinome profiler screen; type: biochemical; conditions: at 20,000 nM inhibitor; kinase activity remaining
T11 construct: purchased Millipore KinaseProfiler
T11 sequence (Q02750 whole entry): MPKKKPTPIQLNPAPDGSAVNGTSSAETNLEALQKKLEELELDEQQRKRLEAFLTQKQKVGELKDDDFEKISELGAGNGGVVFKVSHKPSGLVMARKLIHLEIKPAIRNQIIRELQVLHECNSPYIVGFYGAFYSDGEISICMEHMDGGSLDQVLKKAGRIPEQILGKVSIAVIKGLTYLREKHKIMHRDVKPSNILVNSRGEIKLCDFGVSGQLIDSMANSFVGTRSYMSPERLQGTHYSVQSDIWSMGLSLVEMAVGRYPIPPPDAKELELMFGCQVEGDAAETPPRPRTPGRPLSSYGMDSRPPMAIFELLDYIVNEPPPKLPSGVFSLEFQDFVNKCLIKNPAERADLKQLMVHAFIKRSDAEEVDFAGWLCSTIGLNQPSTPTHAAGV

[12] = biological target: T12, IRR (Homo sapiens, UniProt P14616); test: Kinome profiler screen; type: biochemical; conditions: at 20,000 nM inhibitor; kinase activity remaining
T12 construct: purchased Millipore KinaseProfiler

[13] = biological target: T13, Ron (Homo sapiens, UniProt Q04912); test: Kinome profiler screen; type: biochemical; conditions: at 20,000 nM inhibitor; kinase activity remaining
T13 construct: purchased Millipore KinaseProfiler

[14] = biological target: T14, LIMK1 (Homo sapiens, UniProt P53667); test: Kinome profiler screen; type: biochemical; conditions: at 20,000 nM inhibitor; kinase activity remaining
T14 construct: purchased Millipore KinaseProfiler

[15] = biological target: T15, IGF-1R (Homo sapiens, UniProt P08069); test: Kinome profiler screen; type: biochemical; conditions: at 20,000 nM inhibitor; kinase activity remaining
T15 construct: purchased Millipore KinaseProfiler

[16] = biological target: T16, cKit (Homo sapiens, UniProt P10721); test: Kinome profiler screen; type: biochemical; conditions: at 20,000 nM inhibitor; kinase activity remaining
T16 construct: purchased Millipore KinaseProfiler

[17] = biological target: T17, Abl (Homo sapiens, UniProt P00519); test: Kinome profiler screen; type: biochemical; conditions: at 20,000 nM inhibitor; kinase activity remaining
T17 construct: purchased Millipore KinaseProfiler

[18] = biological target: T18, PIP5K1α (Homo sapiens, UniProt Q99755); test: Kinome profiler screen; type: biochemical; conditions: at 20,000 nM inhibitor; kinase activity remaining
T18 construct: purchased Millipore KinaseProfiler

[19] = biological target: T19, PDGFRβ (Homo sapiens, UniProt P09619); test: Kinome profiler screen; type: biochemical; conditions: at 20,000 nM inhibitor; kinase activity remaining
T19 construct: purchased Millipore KinaseProfiler
T19 sequence (P09619 33-1106): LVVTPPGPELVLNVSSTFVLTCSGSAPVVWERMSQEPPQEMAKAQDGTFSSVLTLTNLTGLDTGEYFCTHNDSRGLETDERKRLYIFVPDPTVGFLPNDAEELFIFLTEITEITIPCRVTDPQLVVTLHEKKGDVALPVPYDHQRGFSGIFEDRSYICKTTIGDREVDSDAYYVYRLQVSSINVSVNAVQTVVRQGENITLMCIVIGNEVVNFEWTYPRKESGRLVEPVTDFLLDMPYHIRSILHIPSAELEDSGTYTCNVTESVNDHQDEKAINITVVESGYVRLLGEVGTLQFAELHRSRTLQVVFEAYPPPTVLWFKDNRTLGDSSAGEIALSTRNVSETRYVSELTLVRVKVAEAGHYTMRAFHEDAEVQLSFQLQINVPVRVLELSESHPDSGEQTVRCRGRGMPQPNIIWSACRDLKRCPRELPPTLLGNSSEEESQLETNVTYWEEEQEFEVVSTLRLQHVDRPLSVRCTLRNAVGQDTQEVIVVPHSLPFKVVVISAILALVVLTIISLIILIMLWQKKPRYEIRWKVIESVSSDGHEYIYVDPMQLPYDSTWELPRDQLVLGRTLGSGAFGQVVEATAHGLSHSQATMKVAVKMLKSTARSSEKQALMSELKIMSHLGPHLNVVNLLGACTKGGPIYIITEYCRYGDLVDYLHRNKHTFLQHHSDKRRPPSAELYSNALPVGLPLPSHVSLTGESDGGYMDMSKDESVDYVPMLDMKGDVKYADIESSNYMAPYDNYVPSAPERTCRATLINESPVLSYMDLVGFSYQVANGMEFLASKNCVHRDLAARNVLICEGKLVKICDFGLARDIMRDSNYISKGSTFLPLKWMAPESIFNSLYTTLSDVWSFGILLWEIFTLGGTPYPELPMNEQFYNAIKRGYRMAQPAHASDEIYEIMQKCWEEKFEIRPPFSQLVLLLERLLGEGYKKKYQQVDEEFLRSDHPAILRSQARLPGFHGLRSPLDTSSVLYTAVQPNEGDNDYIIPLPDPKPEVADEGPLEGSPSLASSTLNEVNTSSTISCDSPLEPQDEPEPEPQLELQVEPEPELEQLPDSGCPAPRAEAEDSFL

[20] = biological target: T20, CK1δ (Homo sapiens, UniProt P48730); test: Kinome profiler screen; type: biochemical
T20 construct: purchased Millipore

[21] = biological target: T21, EphA5 (Homo sapiens, UniProt P54756); test: Kinome profiler screen; type: biochemical; conditions: at 20,000 nM inhibitor; kinase activity remaining
T21 construct: purchased Millipore KinaseProfiler

[22] = system: sensory perception of electric shock; test: Sensory threshold assessment; type: in vivo, C57BL/6J mice; conditions: control test
[23] = biological target: T22, CK2α2 (Homo sapiens, UniProt P19784); test: Kinome profiler screen; type: biochemical; conditions: at 20,000 nM inhibitor; kinase activity remaining; read-out: % Activity
T22 construct: purchased Millipore KinaseProfiler

[24] = biological target: T23, FGFR2 (Homo sapiens, UniProt P21802); test: Kinome profiler screen; type: biochemical; conditions: at 20,000 nM inhibitor; kinase activity remaining
T23 construct: purchased Millipore KinaseProfiler
T23 sequence (P21802 22-821): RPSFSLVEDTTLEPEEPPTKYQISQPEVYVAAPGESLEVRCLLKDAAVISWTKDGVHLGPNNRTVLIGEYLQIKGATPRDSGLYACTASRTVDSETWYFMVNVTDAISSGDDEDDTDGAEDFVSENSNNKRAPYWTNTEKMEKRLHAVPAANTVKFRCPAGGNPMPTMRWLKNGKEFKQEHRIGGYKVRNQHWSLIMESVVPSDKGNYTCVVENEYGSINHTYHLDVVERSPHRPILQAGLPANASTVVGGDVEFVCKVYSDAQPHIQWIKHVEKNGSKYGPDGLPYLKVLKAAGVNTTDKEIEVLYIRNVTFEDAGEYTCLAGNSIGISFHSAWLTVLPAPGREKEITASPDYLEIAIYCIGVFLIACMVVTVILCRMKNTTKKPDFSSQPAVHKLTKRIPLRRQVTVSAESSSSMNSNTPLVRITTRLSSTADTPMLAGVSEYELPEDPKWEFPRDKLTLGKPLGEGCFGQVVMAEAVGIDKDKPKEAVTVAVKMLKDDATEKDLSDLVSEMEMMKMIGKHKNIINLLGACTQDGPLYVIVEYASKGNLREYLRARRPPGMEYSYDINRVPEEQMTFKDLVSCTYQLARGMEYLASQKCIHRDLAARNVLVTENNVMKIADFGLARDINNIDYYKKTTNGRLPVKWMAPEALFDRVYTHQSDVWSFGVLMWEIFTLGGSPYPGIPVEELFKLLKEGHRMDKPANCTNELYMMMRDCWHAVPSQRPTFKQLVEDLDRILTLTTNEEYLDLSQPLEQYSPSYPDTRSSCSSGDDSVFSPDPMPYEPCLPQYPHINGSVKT

[25] = biological target: T24, Haspin (Homo sapiens, UniProt Q8TF76); test: Kinome profiler screen; type: biochemical; conditions: at 20,000 nM inhibitor; kinase activity remaining
T24 construct: purchased Millipore KinaseProfiler

[26] = biological target: T25, PKG1β (Homo sapiens, UniProt Q13976); test: Kinome profiler screen; type: biochemical; conditions: at 20,000 nM inhibitor; kinase activity remaining
T25 construct: purchased Millipore KinaseProfiler

[27] = biological target: T26, Tie2(R849W) (Homo sapiens, UniProt Q02763, R849W); test: Kinome profiler screen; type: biochemical; conditions: at 20,000 nM inhibitor; kinase activity remaining
T26 construct: purchased Millipore KinaseProfiler

[28] = biological target: T27, Tie2 (Homo sapiens, UniProt Q02763); test: Kinome profiler screen; type: biochemical; conditions: at 20,000 nM inhibitor; kinase activity remaining
T27 construct: purchased Millipore KinaseProfiler

[29] = biological target: T28, PTK5 (Homo sapiens, UniProt P42685); test: Kinome profiler screen; type: biochemical; conditions: at 20,000 nM inhibitor; kinase activity remaining
T28 construct: purchased Millipore KinaseProfiler

[30] = biological target: T29, Aurora-B (Homo sapiens, UniProt Q96GD4); test: Kinome profiler screen; type: biochemical; conditions: at 20,000 nM inhibitor; kinase activity remaining
T29 construct: purchased Millipore KinaseProfiler

[31] = biological target: T30, Abl (M351T) (Homo sapiens, UniProt P00519, M351T); test: Kinome profiler screen; type: biochemical; conditions: at 20,000 nM inhibitor; kinase activity remaining
T30 construct: purchased Millipore KinaseProfiler

[32] = biological target: T31, Pim-1 (Homo sapiens, UniProt P11309); test: Kinome profiler screen; type: biochemical; conditions: at 20,000 nM inhibitor; kinase activity remaining
T31 construct: purchased Millipore KinaseProfiler

[33] = system: exploratory behavior; test: Open-field test; type: in vivo, C57BL/6J mice; conditions: time in and entries into center compartment; control test
[34] = biological target: T32, NEK11 (Homo sapiens, UniProt Q8NG66); test: Kinome profiler screen; type: biochemical; conditions: at 20,000 nM inhibitor; kinase activity remaining
T32 construct: purchased Millipore KinaseProfiler

[35] = biological target: T33, TAO2 (Homo sapiens, UniProt Q9UL54); test: Kinome profiler screen; type: biochemical; conditions: at 20,000 nM inhibitor; kinase activity remaining
T33 construct: purchased Millipore KinaseProfiler

[36] = biological target: T34, PKCθ (Homo sapiens, UniProt Q04759); test: Kinome profiler screen; type: biochemical; conditions: at 20,000 nM inhibitor; kinase activity remaining
T34 construct: purchased Millipore KinaseProfiler

[37] = biological target: T35, CDK6/cyclinD3 (Homo sapiens, UniProt Q00534); test: Kinome profiler screen; type: biochemical; conditions: at 20,000 nM inhibitor; kinase activity remaining
T35 construct: purchased Millipore KinaseProfiler

[38] = biological target: T36, MST2 (Homo sapiens, UniProt Q13188); test: Kinome profiler screen; type: biochemical; conditions: at 20,000 nM inhibitor; kinase activity remaining
T36 construct: purchased Millipore KinaseProfiler

[39] = biological target: T37, PDK1 (Homo sapiens, UniProt O15530); test: Kinome profiler screen; type: biochemical; conditions: at 20,000 nM inhibitor; kinase activity remaining
T37 construct: purchased Millipore KinaseProfiler

[40] = biological target: T38, ROCK-II (Homo sapiens, UniProt O75116); test: Kinome profiler screen; type: biochemical; conditions: at 20,000 nM inhibitor; kinase activity remaining
T38 construct: purchased Millipore KinaseProfiler
T38 sequence (O75116 whole entry): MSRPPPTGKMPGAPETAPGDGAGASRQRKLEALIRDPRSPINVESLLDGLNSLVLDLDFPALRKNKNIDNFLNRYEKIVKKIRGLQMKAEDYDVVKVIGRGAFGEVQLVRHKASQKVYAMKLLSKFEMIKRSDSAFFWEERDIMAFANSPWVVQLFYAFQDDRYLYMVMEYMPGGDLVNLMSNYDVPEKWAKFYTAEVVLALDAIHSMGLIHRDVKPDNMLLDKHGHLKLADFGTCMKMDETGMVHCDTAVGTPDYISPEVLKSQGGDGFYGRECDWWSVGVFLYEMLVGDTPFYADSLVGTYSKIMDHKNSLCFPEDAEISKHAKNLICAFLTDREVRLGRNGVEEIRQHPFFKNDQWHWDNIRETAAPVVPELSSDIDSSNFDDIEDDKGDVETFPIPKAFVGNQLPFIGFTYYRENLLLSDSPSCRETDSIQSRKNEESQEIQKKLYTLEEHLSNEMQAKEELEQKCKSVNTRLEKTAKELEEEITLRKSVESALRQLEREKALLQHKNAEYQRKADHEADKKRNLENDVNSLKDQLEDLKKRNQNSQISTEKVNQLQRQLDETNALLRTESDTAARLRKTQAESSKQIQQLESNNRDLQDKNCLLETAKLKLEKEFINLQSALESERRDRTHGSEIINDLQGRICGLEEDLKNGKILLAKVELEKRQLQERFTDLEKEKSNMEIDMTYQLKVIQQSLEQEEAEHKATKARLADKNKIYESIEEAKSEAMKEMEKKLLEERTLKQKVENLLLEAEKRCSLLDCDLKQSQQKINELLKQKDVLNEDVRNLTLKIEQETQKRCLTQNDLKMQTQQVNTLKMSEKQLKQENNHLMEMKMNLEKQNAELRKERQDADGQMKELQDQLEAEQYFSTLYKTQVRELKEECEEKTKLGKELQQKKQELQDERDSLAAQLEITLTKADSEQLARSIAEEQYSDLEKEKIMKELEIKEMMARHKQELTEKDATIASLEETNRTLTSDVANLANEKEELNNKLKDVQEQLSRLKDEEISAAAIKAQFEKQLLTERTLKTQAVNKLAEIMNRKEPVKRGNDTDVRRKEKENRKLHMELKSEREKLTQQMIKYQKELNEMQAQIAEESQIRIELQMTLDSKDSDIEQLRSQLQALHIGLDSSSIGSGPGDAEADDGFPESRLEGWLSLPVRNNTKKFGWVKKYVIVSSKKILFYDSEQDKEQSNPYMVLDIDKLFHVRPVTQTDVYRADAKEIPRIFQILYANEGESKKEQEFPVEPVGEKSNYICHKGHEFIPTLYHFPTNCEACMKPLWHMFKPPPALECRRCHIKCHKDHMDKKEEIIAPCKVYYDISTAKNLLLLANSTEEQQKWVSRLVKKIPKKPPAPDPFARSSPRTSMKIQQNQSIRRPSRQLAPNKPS

[41] = biological target: T39, PI3 Kinase (p110δ/p85α)(m) (Mus musculus, UniProt O35904); test: Kinome profiler screen; type: biochemical; conditions: at 20,000 nM inhibitor; kinase activity remaining
T39 construct: purchased Millipore KinaseProfiler

[42] = biological target: T40, CLK2 (Homo sapiens, UniProt P49760); test: Kinome profiler screen; type: biochemical; conditions: at 20,000 nM inhibitor; kinase activity remaining
T40 construct: purchased Millipore KinaseProfiler

[43] = system: visual, motor and motivation deficits; test: Visible platform test; type: in vivo, C57BL/6J mice; conditions: control test
[44] = system: IL-1β levels in brain cortex; test: LPS-induced brain IL-1β in vivo; design: species or system C57Bl/6 mice; conditions: 20 mg/Kg oral gavage 1 hr before LPS 0.5 mg/kg i.p.; brain cortex at 6 hrs

For `CN(C)c1cc(-c2ccncc2)c(-c2cccc3ccccc23)nn1` [MW181, N,N-dimethyl-6-(naphthalen-1-yl)-5-(pyridin-4-yl)pyridazin-3-amine], the activity at 20 µM [1] was 78%, the activity at 20 µM [2] was 84% and the activity at 20 µM [3] was 106%. The activity at 20 µM [4] was 107%, the activity at 20 µM [5] was 100% and the activity at 20 µM [6] was 103%. It also gave an activity at 20 µM [7] of 92%, an activity at 20 µM [8] of 96% and an activity at 20 µM [9] of 104%. It also gave an activity at 20 µM [10] of 98%, an activity at 20 µM [11] of 105% and an activity at 20 µM [12] of 108%. For the same molecule, the activity at 20 µM [13] was 94%, the activity at 20 µM [14] was 95% and the activity at 20 µM [15] was 121%. It also gave an activity at 20 µM [16] of 106%, an activity at 20 µM [17] of 125% and an activity at 20 µM [18] of 102%. The activity at 20 µM [19] was 99%, the activity at 20 µM [20] was 89% and the activity at 20 µM [21] was 101%. The “sensory threshold” value [22] was “Sensory threshold was not affected regardless of treatment”, the activity at 20 µM [23] was 99% and the activity at 20 µM [24] was 98%. The activity at 20 µM [25] was 93%, the activity at 20 µM [26] was 97% and the activity at 20 µM [27] was 99%. The activity at 20 µM [28] was 99%, the activity at 20 µM [29] was 90% and the activity at 20 µM [30] was 114%. The activity at 20 µM [31] was 101%, the activity at 20 µM [32] was 107% and the “exploratory behavior, open field” value [33] was “No differences in exploratory behavior”. The activity at 20 µM [34] was 121%, the activity at 20 µM [35] was 94% and the activity at 20 µM [36] was 98%. For the same molecule, the activity at 20 µM [37] was 103%, the activity at 20 µM [38] was 105% and the activity at 20 µM [39] was 105%. For the same molecule, the activity at 20 µM [40] was 108%, the activity at 20 µM [41] was 101% and the activity at 20 µM [42] was 98%. The “visible platform test, speed and time to the platform” value [43] was “No difference was detected between groups” and the “LPS-induced IL-1β levels in vivo” value [44] was “suppressed LPS-induced IL-1β levels in vivo”.
